Measurements published in patent publication US8722043B2, “Induction of p53 expression by neutralization of neuropilin-2 for the treatment of cancers” (Diaclone, priority 2008, dated 2014).

Key:
[1] = test system: Colo320siRNA-ctrl cells; assay: Annexin V-APC apoptosis test with or without PFTα pretreatment; format: cell-based, human; settings: PFTα 27 μM, 18 h pretreatment
Experimental: In order to correlate the induction of apoptosis with p53 expression, the Colo320siRNA-ctrl cells were pretreated for 18 h with a chemical inhibitor of p53, pifithrin-α, at a dose of 27 μM (PFTα, Sigma). After pretreatment, the cells are washed twice with 3 ml of PBS and placed in a 24-well plate, at a rate of 100 000 cells/well in 1 ml of RPMI-10% FCS. Non-pretreated cells are placed under the same conditions. The cells are incubated for 5 h with a control murine isotype antibody (BZ1) or ITAC-B1 at 20 μg/ml and the apoptosis is measured as described above.
FIG. 14 represents the results of the apoptosis-induction experiments carried out with the Colo320siRNA-ctrl cells pretreated or not pretreated with PFTα. The percentage of cells labelled with Annexin V-APC is indicated on the y-axis, the cell culture conditions are indicated on the x-axis (control consisting of medium, control consisting of medium supplemented with a control isotype antibody -BZ1-, test consisting of medium supplemented with the ITAC-B1 antibody). The results of the tests carried out with cells pretreated with PFTα are represented in light grey, those of the tests carried out with non-pretreated cells are represented in dark grey.

[2] = test system: mutant p53 proteins; settings: model of human xenograft; review Levesque & Eastman 2007; cited from earlier work
[3] = test system: HT29-NRP-2 tumour cells; assay: HT29-NRP-2 subcutaneous xenograft, tumour volume; format: in vivo, immunodeficient mice; settings: group C: 5-FU intraperitoneally 20 mg/kg D0 to D4, 100 mg/kg at D9
Experimental: HT29-NRP-2 tumour cells were injected subcutaneously into 20 immunodeficient mice, at a rate of 1×10^6 cells per mouse, in the right flank. 10 days after the injection, the tumours measure approximately 5 mm×5 mm.
In accordance with the protocol described above, group B was inoculated with ITAC-B1 at D0 (12 mg/kg), D3 (6 mg/kg), D7 (12 mg/kg) and D10 (6 mg/kg). Group C was inoculated with 20 mg/kg of 5-FU from D0 to D4 and then with 100 mg/kg at D9. Group D was inoculated with ITAC-B1 at D0 (12 mg/kg), D3 (6 mg/kg), D7 (12 mg/kg) and D10 (6 mg/kg) and with 20 mg/kg of 5-FU from D0 to D4 and 100 mg/kg of 5-FU at D9.
The tumours were measured twice a week, and the volume of the tumours was calculated with the formula: V (mm^3)=d^2×D/2.
FIG. 21 represents the tumour volume as a function of time. Group A (PBS control) is represented by (⋄), group B (mice inoculated with the ITAC-B1 antibody) is represented by (▪), group C (mice inoculated with 5-FU) is represented by (Δ), and group D (mice inoculated both with the ITAC-B1 antibody and with 5-FU) is represented by (x).

[4] = test system: Colo320 human tumour cells; assay: Tumour colony formation in semi-solid agar medium; format: cell-based; settings: for number of colonies formed: 50 μg/ml, 10 days post-seeding (FIG. 9)
Experimental: In order to determine whether the ITAC-B1 antibody has a neutralizing activity on the formation of tumour colonies in vitro, tests for tumour colony formation in vitro in a semi-solid agar medium containing agar were carried out. The principle of this test is based on bringing Colo320 human tumour cells (which express NRP-2 at their membrane surface and, furthermore, naturally secrete VEGF into the culture medium) into contact with the ITAC-B1 antibody. 4000 Colo320 cells are seeded into each well of a 24-well plate, in a semi-solid medium containing agar, and in the presence of 10 μg/ml of anti-NRP-2 antibody ITAC-B1. By way of comparison, the same test is carried out in the presence of cytotoxic agents with a proven action, i.e. 5-fluorouracil (5-FU), used at a rate of 50 μg/ml, or of Avastin® (bevacizumab: humanized monoclonal antibodies directed against VEGF), used at a rate of 50 μg/ml, or in the presence of a control isotype antibody (mouse IgG1 monoclonal antibody (BZ1)), used at a rate of 10 μg/ml.
At 10 days post-seeding, the colonies were counted under an optical microscope.
Since neuropilin-2 is a coreceptor for VEGF, it was verified whether the activity of ITAC-B1 was dependent on an interaction between NRP-2 and the VEGF produced by the Colo320 cells. With this aim, the tests for Colo320-cell colony formation were carried out under the conditions described above, and in the presence of ITAC-B1 antibody (10 μg/ml), of bevacizumab (50 μg/ml) or of control antibody (10 μg/ml), used separately or in combination.
The results are given in FIG. 10: the y-axis represents the number of colonies formed; on the x-axis, the antibodies present in the culture medium are indicated by a “+”.

[5] = test system: HT29-NRP-2 cells; assay: Annexin V-APC apoptosis test; format: cell-based, human; settings: selection criterion of the hybridoma clones
Experimental: In order to determine the ability of the ITAC-B1 antibody to induce apoptosis of tumour cells expressing NRP-2, an in vitro Annexin V-APC apoptosis test was carried out (BD Pharmingen, San Diego, Calif.). This test is based on the externalization of phosphatidylserin by apoptotic cells and on the binding of Annexin V-APC to this molecule.
1 ml of DMEM medium containing 10% of inactivated FCS and 100 000 HT29-NRP-2 cells or 100 000 HT29ctrl cells were seeded, per well, into a 24-well Nunc plate. […] In parallel, “cells alone” controls were carried out, as were negative controls (anti-human mouse IgG1 antibody (BZ1) at the same concentrations as the ITAC-B1 antibody).
[…] When the cells began to detach, 500 μl of DMEM medium-10% FCS were added per well. The cells were then centrifuged, washed twice in PBS, and then taken up in 300 μl of 1× binding buffer (provided in the kit), and then 5 μl of Annexin V-APC were subsequently added to 100 μl of this solution.
The panels of FIG. 13 are point-cloud representations of the flow cytometry analysis. For each of the panels, the fluorescence intensity (corresponding to the labelling of the cells with Annexin V-APC) is represented on the x-axis. The y-axis indicates the granulosity of the cells (Side Scatter or SSC). […] The percentage of cells labelled with Annexin V-APC (corresponding to the percentage of cells having entered into apoptosis) is indicated at the bottom-right of each panel.
The apoptosis induced was then measured by labelling with Annexin V-APC as described above.
The panels of FIG. 15 are point-cloud representations of the flow cytometry analysis. For each of the panels, the fluorescence intensity (corresponding to the labelling of the cells with Annexin V-APC) is represented on the x-axis. The y-axis indicates the granulosity (side scatter) of the cells. The conditions of treatment with the antibodies and the Avastin® are indicated to the left of the panels. The percentage of cells labelled with the Annexin V-APC, corresponding to the percentage of cells having entered into apoptosis, is indicated at the top-right of each panel.

[6] = test system: p53 protein; assay: Western blotting of p53 expression after antibody treatment; format: cell-based, human; settings: HT29-NRP-2 and Colo320^siRNA-ctrl; 20 ng/ml, 48 hours
Experimental: The HT29, HT29-NRP-2, Colo320^siRNA-ctrl tumour cells and Colo320^siRNA-NRP-2 were exposed to 20 ng/ml of ITAC-B1 antibody or of control antibody, and cultured for 48 hours. After lysis of the cell lines, migration of the protein pellets obtained on a 10% polyacrylamide gel (10 μg of protein per well) and then transfer onto a PVDF membrane, the membrane was incubated overnight with the anti-p53 primary antibody (BD Biosciences, mouse anti-human p53) diluted to 1/500. After washing in TBS/0.1% Tween20, the membranes were incubated for 1 hour with an anti-mouse IgG-HRP secondary antibody diluted to 1/6000. The results are represented in FIG. 19.

Molecule: Cc1ccc(C(=O)Cn2c3c(sc2=N)CCCC3)cc1 [PFTα, pifithrin-α, reference compound]
- effect of pretreatment on ITAC-B1-dependent apoptosis [1]: prevents the ITAC-B1-dependent apoptosis

Molecule: COc1ccc(/C=C/c2nc(NCCCN(C)C)c3ccccc3n2)cc1 [CP-31398]
- tumour growth [2]: successfully used to inhibit tumour growth

Molecule: O=c1[nH]cc(F)c(=O)[nH]1 [5-FU, 5-fluorouracil, reference compound]
- tumour volume [3]: reduction in tumour volume is observed starting from D14
- number of colonies formed [4]: approximately 40

Molecule: O=C1C2CCN(CC2)C1(CO)CO [PRIMA-1]
- tumour growth [2]: successfully used to inhibit tumour growth

Molecule: CCC(=O)OCN1C(=O)C=CC1=O [MIRA-1]
- tumour growth [2]: successfully used to inhibit tumour growth

Molecule: bevacizumab [Avastin®]
- number of colonies formed [4]: approximately 120
- effect on the proliferation of the Colo320 cells (number of colonies) ([4]; bevacizumab 50 μg/ml (FIG. 10)): very little effect

B1: ITAC-B2: anti-human neuropilin-2 monoclonal antibody, VH SEQ ID No. 6, VL SEQ ID No. 8 (antibody, listed as Mus musculus, V domains shown)
VH: EVQLEESGGGLVKPGGSLKLSCAASGFTFSDYYMYWVRQTPEKRLEWVATISDGGSYTYYPDSIKGRFTISRDNARNNLYLQMSSLKSEDTAMYYCARGGPYRSWFAFWGQGTLVTVSA
VL: DIVITQTPLSLPVSLGDQASISCRSSQSIVYSNGNTYLEWYLQKPGQSPKLLIYKVSNRFSGVPDRFSGSGSGTDFTLKISRVEAEDLGVYYCFQGSHVPPTFGGGTKLEIK
- ability to induce apoptosis of tumour cells expressing neuropilin-2 (selection of clones) [5]: ability to induce apoptosis of tumour cells expressing neuropilin-2
- expression of p53 in lines which express NRP-2 [6]: have the Ability to Induce Expression of the p53 Protein
